Measurements taken from US20150135829A1, “Levitation of Materials in Paramagnetic Ionic Liquids” (Presidents and Fellows of Harvard College, priority 2012, published 2015).

Legend:
Format in all cases: physicochemical
[1] = Density and magnetic susceptibility of paramagnetic ionic liquids from MagLev levitation height of density standard beads; conditions: for ρ (density) / χ (magnetic susceptibility): calculated from levitation height vs density of standard beads (Mirica et al. JACS 2009 method); for Accessible Density Range: range of densities that can be levitated in MagLev
Experimental: The density of a diamagnetic object was determined, from its levitation height, by suspending the object in a container filled with paramagnetic ionic liquid and placed the container between two NdFeB magnets oriented with like poles facing each other (see FIG. 5). Before using the paramagnetic ionic liquids as liquids for density based measurement using Maglev, the density and magnetic susceptibility of each paramagnetic ionic liquid was first determined (examples shown in FIG. 6). These properties can be calculated from a plot of the levitation height of objects with known density versus their density using previously disclosed methods. See, e.g., Mirica et al. JACS, 2009, 10049. See also, FIGS. 7-9, Table 1.

[2] = Thermal stability by thermal gravimetric analysis (TGA)
Experimental: The change in weight as a function of temperature was monitored by heating the sample from room temperature to 700° C. at a ramp rate of 10° C./min.
(§1) Except for [BMIM][FeCl4], [GlyC2][FeCl2][BMIM]2[MnCl4], all paramagnetic ionic liquids were synthesized by mixing appropriate equivalents of the halide starting materials in methanol and allowed to stir overnight. The solvent was removed in vacuo affording paramagnetic ionic liquids in nearly quantitative yield. The synthesis of [BMIM][FeCl4], [GlyC2][FeCl4] was carried out by following reported literature procedure (Satoshi Hayashi and Hiro-o Hamaguchi Chemistry Letters 2004, 33 (12) 1590-1591; Masanari Okuno and Hiro-o Hamaguchi Applied Physics Letters 2006, 89, 132506). Specifically, BMIM Cl and FeCl3 were mixed together in a 1:1 molar ratio and stirred under nitrogen atmosphere. After stirring for 10 minutes at room temperature, BMIM FeCl4 was obtained as a brown colored ionic liquid. This procedure was also used for BMIM MnCl4 except that the mixture was gently heated at 60° C. for 5 minutes. The synthesized paramagnetic ionic liquids were characterized using elemental analysis (Robertson Microlit Labs, NJ). The glass transition temperature (Tg), melting point (Tm), and decomposition temperatures (Tdec) of the synthesized paramagnetic ionic liquids were obtained respectively using dynamic scanning calorimetry (DSC), and thermal gravimetric analysis (TGA).
The thermal stability of the paramagnetic ionic liquids was measured using thermal gravimetric analysis (TGA). Most paramagnetic ionic liquids were thermally stable to at least 300° C. (see FIG. 4). The melting points (Tm), glass transition (Tg) and decomposition temperatures (Tdec) of the synthesized paramagnetic ionic liquids is provided below.

[3] = Glass transition temperature by differential scanning calorimetry (DSC); conditions: cooling from 20° C. to −75° C. at 10° C./minute, then heating
Experimental: as §1, with “The glass transition temperature (Tg), melting point (Tm), and decomposition temperatures (Tdec) of the synthesized paramagnetic ionic liquids were obtained respectively using dynamic scanning calorimetry (DSC), and thermal gravimetric analysis (TGA).” left out
The glass transition temperatures and melting points of the synthesized paramagnetic ionic liquids were determined using differential scanning calorimetry (DSC) (see FIG. 3). […]

| ρ (density) [1] [g/mL] | χ (magnetic susceptibility) [1] | Accessible Density Range [1] [g/mL] | Tdec (decomposition temperature) [2] [°C] | Tg (glass transition temperature) [3] [°C] | magnetic susceptibility (χ) [1] | Structure (SMILES) |
| --- | --- | --- | --- | --- | --- | --- |
| 1.24 | 11.80 ×10^−4 | 0.63 to 1.86 |  |  |  | COC(=O)[C@H](C)[NH3+].COC(=O)[C@H](C)[NH3+].[Cl][Mn-2]([Cl])([Cl])[Cl] [[AlaC1]2 [MnCl4]] |
| 1.41 | 9.58 ×10^−4 | 0.91 to 1.91 |  |  |  | COC(=O)[C@H](C)[NH3+].COC(=O)[C@H](C)[NH3+].COC(=O)[C@H](C)[NH3+].[Cl][Dy-3]([Cl])([Cl])([Cl])([Cl])[Cl] [[AlaC1]3 [DyCl6]] |
| 1.31 | 8.24 ×10^−4 | 0.89 to 1.74 |  |  |  | COC(=O)[C@H](C)[NH3+].COC(=O)[C@H](C)[NH3+].COC(=O)[C@H](C)[NH3+].[Cl][Gd-3]([Cl])([Cl])([Cl])([Cl])[Cl] [[AlaC1]3 [GdCl6]] |
| 1.42 | 9.70 ×10^−4 | 0.92 to 1.93 |  |  |  | COC(=O)[C@H](C)[NH3+].COC(=O)[C@H](C)[NH3+].COC(=O)[C@H](C)[NH3+].[Cl][Ho-3]([Cl])([Cl])([Cl])([Cl])[Cl] [[AlaC1]3 [HoCl6]] |
| 1.52 | 6.62 ×10^−4 | 1.15 to 1.93 |  |  |  | COC(=O)[C@H](C)[NH3+].[Cl][Fe-]([Cl])([Cl])[Cl] [[AlaC1] [FeCl4]] |
| 0.96 | 1.85 ×10^−4 | 0.90 to 100 |  |  |  | CCCCCCCC[N+](C)(CCCCCCCC)CCCCCCCC.CCCCCCCC[N+](C)(CCCCCCCC)CCCCCCCC.[Cl][Mn-2]([Cl])([Cl])[Cl] [[Aliq]2 [MnCl4]] |
| 0.97 | 0.55 ×10^−4 | 0.95 to 0.99 |  |  |  | CCCCCCCC[N+](C)(CCCCCCCC)CCCCCCCC.CCCCCCCC[N+](C)(CCCCCCCC)CCCCCCCC.CCCCCCCC[N+](C)(CCCCCCCC)CCCCCCCC.[Cl][Gd-3]([Cl])([Cl])([Cl])([Cl])[Cl] [[Aliq]3 [GdCl6]] |
| 1.08 | 1.37 ×10^−4 | 1.01 to 1.15 | 250 |  |  | CCCCCCCC[N+](C)(CCCCCCCC)CCCCCCCC.CCCCCCCC[N+](C)(CCCCCCCC)CCCCCCCC.CCCCCCCC[N+](C)(CCCCCCCC)CCCCCCCC.[Br][Ho-3]([Br])([Br])([Br])([Br])[Br] [[Aliq]3 [HoBr6]] |
| 0.95 | 1.94 ×10^−4 | 0.85 to 1.05 |  |  |  | CCCCCCCC[N+](C)(CCCCCCCC)CCCCCCCC.CCCCCCCC[N+](C)(CCCCCCCC)CCCCCCCC.CCCCCCCC[N+](C)(CCCCCCCC)CCCCCCCC.[Cl][Ho-3]([Cl])([Cl])([Cl])([Cl])[Cl] [[Aliq]3 [HoCl6]] |
| 1.23 | 3.49 ×10^−4 | 1.05 to 1.41 |  |  |  | CCCC[n+]1ccn(C)c1C.CCCC[n+]1ccn(C)c1C.CCCC[n+]1ccn(C)c1C.[Cl][Dy-3]([Cl])([Cl])([Cl])([Cl])[Cl] [[BDMIM]3 [DyCl6]] |
| 1.24 | 2.75 ×10^−4 | 1.09 to 1.37 | 300 | −40 |  | CCCC[n+]1ccn(C)c1.CCCC[n+]1ccn(C)c1.[Cl][Mn-2]([Cl])([Cl])[Cl] [[BMIM]2 [MnCl4]] |
| 1.37 | 12.37 ×10^−4 | 0.72 to 2.01 | 350 |  | 12.4 ·10^−4 | CCCCn1cc[n+](C)c1.CCCCn1cc[n+](C)c1.CCCCn1cc[n+](C)c1.[Cl][Dy-3]([Cl])([Cl])([Cl])([Cl])[Cl] [[BMIM]3 [DyCl6]] |
| 1.29 | 5.40 ×10^−4 | 1.30 to 1.35 |  |  |  | CCCC[n+]1ccn(C)c1.CCCC[n+]1ccn(C)c1.CCCC[n+]1ccn(C)c1.[Cl][Ho-3]([Cl])([Cl])([Cl])([Cl])[Cl] [[BMIM]3 [HoCl6]] |
| 1.39 | 8.28 ×10^−4 | 0.96 to 1.83 |  |  |  | CCCCn1cc[n+](C)c1.[Cl][Fe-]([Cl])([Cl])[Cl] [[BMIM] [FeCl4]] |
|  |  |  |  | −69 |  | CCCCCCCCCCCCCC[P+](CCCCCC)(CCCCCC)CCCCCC.CCCCCCCCCCCCCC[P+](CCCCCC)(CCCCCC)CCCCCC.[Cl][Mn-2]([Cl])([Cl])[Cl] [[PR4]2[MnCl4]] |
